Data: patent US11999727B2 (Tango Therapeutics, Inc., priority 2020, dated 2024)
Where two headings read alike, the source gives them in different places.

How the values were obtained:
Assay type in all cases: cell-based
[1] = system: HAP1 MTAP-deleted cell line; assay: Viability assay, MTAP-deleted cell line; conditions: Homo sapiens
Source text: Table 1 additionally indicates IC50 values in a viability assay for the MTAP-deleted cell line (column 10), indicating the effect of treatment with compound on cell survival.

[2] = system: HAP1 MTAP-intact cell line; assay: SDMA in-cell western assay, HAP1 MTAP-intact; conditions: Homo sapiens
Source text: (§1) Table 1 also indicates IC50 values in an MTAP-isogenic cell line pair for exemplary compounds in an SDMA in-cell western assay (columns 7-8). HAP1 MTAP-intact is a cell line in which endogenous levels of MTAP are expressed, and HAP1 MTAP-deleted is an MTAP-null cell line.

[3] = system: HAP1 MTAP-deleted cell line; assay: SDMA in-cell western assay, HAP1 MTAP-deleted; conditions: for IC50: Homo sapiens
Source text: as §1

[4] = HAP1, read-out: HAP1 MTAP deleted viability
[5] = HAP1, read-out: MTAP HAP1 intact IC50
[6] = HAP1, read-out: HAP1 MTAP deleted IC50

SMILES | IC50 [1, 4] | IC50 [2, 5] | IC50 [3, 6] | IC50 ([1]; HAP1, viability IC50, MTAP-deleted cell line, read-out: HAP1 MTAP deleted viability) | IC50 ([2]; HAP1, SDMA in-cell western, HAP1 MTAP-intact, read-out: MTAP HAP1 intact IC50) | IC50 ([3]; HAP1, SDMA in-cell western, HAP1 MTAP-deleted, read-out: HAP 1 MTAP deleted IC50) | MTAP intact/deleted ratio ([3]; IC50 ratio HAP1 MTAP-intact / HAP1 MTAP-deleted, SDMA in-cell western)
C[C@H]1CC[C@H](c2ccccc2)N(C(=O)C(=O)Nc2cncc(C(N)=O)c2)C1 (single isomer, unassigned) [Compound 88] | 1000 to 10000 nM | > 1000 nM | < 100 nM |  |  |  | 
C[C@H]1CC[C@H](c2ccc3[nH]ccc3c2)N(C(=O)C(=O)Nc2cncc(C(N)=O)c2)C1 (single isomer, unassigned) [Compound 481] | < 1000 nM | 100 to 1000 nM | < 100 nM |  |  |  | 
Cc1cc(NC(=O)C(=O)N2C[C@H](C)CC[C@H]2c2ccc3c(c2)CC(=O)N3)cnc1N (racemic) [Compound 373, N-(6-amino-5-methyl-3-pyridyl)-2-[5-methyl-2-(2-oxoindolin-5-yl)-1-piperidyl]-2-oxo-acetamide] | < 1000 nM | 100 to 1000 nM | < 100 nM |  |  |  | 
Cc1cc(NC(=O)C(=O)N2C[C@H](C)CC[C@H]2c2ccc3[nH]ncc3c2)cnc1N (single isomer, unassigned) [Compound 363] | < 1000 nM | < 100 nM | < 100 nM |  |  |  | 
C[C@@H]1CC[C@@H](c2ccc(C(F)F)cc2)N(C(=O)C(=O)Nc2cncc(C(N)=O)c2)C1 (single isomer, unassigned) [Compound 358] | > 10000 nM | > 1000 nM | > 1000 nM |  |  |  | 
C[C@@H]1CC[C@@H](c2ccc3c(c2)CCC(=O)N3)N(C(=O)C(=O)Nc2cncc(C(N)=O)c2)C1 (single isomer, unassigned) [Compound 480] | > 10000 nM | > 1000 nM | > 1000 nM |  |  |  | 
Cc1cncc(NC(=O)C(=O)N2C[C@@H](C)CC[C@@H]2c2ccccc2)c1 (single isomer, unassigned) [Compound 2] | > 10000 nM | > 1000 nM | > 1000 nM |  |  |  | 
Cc1cc(NC(=O)C(=O)N2C[C@H](C)CC[C@H]2c2ccc(O)cc2)cnc1N (racemic) [Compound 164, rac-N-(6-amino-5-methylpyridin-3-yl)-2-((2R,5S)-2-(4-hydroxyphenyl)-5-methylpiperidin-1-yl)-2-oxoacetamide] | < 1000 nM | 100 to 1000 nM | < 100 nM |  |  |  | 
C[C@H]1CC[C@H](c2ccc3scnc3c2)N(C(=O)C(=O)Nc2cncc(C(N)=O)c2)C1 (single isomer, unassigned) [Compound 587] | < 1000 nM | 100 to 1000 nM | < 100 nM |  |  |  | 
Cc1cc([C@@H]2CC[C@@H](C)CN2C(=O)C(=O)Nc2cncc(C(N)=O)c2)cc2cn[nH]c12 (single isomer, unassigned) [Compound 611] |  |  |  | > 10000 nM | > 1000 nM | > 1000 nM | C (an IC50 ratio of less than 3 fold)
Cc1cc(NC(=O)C(=O)N2C[C@H](C)CC[C@H]2c2ccc3cnccc3c2)cnc1N (racemic) [Compound 758, N-(6-Amino-5-methyl-3-pyridyl)-2-[2-(6-isoquinolyl)-5-methyl-1-piperidyl]-2-oxo-acetamide] | < 1000 nM | 100 to 1000 nM | < 100 nM |  |  |  | 
Cc1cc(NC(=O)C(=O)N2C[C@H](C)CC[C@H]2c2ccc(O)cc2)cnc1N (single isomer, unassigned) [Compound 397] | < 1000 nM | 100 to 1000 nM | < 100 nM |  |  |  | 
Cc1cc(NC(=O)C(=O)N2C[C@H](C)CC[C@H]2c2ccc(F)cc2)cnc1N (single isomer, unassigned) [Compound 233] | > 10000 nM | > 1000 nM | > 1000 nM |  |  |  | 
C[C@@H]1CC[C@@H](c2ccc3cnccc3c2)N(C(=O)C(=O)Nc2cncc(C(N)=O)c2)C1 (single isomer, unassigned) [Compound 892] | < 1000 nM | > 1000 nM | < 100 nM |  |  |  | 
C[C@H]1CC[C@H](c2ccc3sc(C4CCN(C)CC4)nc3c2)N(C(=O)C(=O)Nc2cnc(N)c(C3COC3)c2)C1 (single isomer, unassigned) [Compound 1334] | < 1000 nM | < 100 nM | < 100 nM |  |  |  | 
Cc1cc(NC(=O)C(=O)N2C[C@H](C)CC[C@H]2c2ccc3cnccc3c2)cnc1N (single isomer, unassigned) [Compound 1000] | < 1000 nM | 100 to 1000 nM | < 100 nM |  |  |  | 
